Measurements from patent US11976072B2, “Diacylglycerol kinase modulating compounds” (priority 2021, dated 2024).
pEC50, pIC50: −log10 of the molar value. Like-named read-outs stand apart in the source and are kept apart here.

Assays:
[1] = system: Jurkat NFκB-luciferase cells; test: Jurkat NFκB-Luciferase Assay; assay type: cell-based; settings: Homo sapiens; Jurkat NFκB-luciferase cells activated with anti-CD3 antibody (OKT3), 2.5 hrs at 37° C.; geometric mean; read-out: DGK NFKb Luciferase EC50
Procedure, shortened: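 Luminescence from One-Glo Ex, read 7 min post-addition, reports NFκB activation in Jurkat luciferase reporter cells. Cells, diluted to 1 million cells/ml in 10% FBS RPMI, were dispensed onto plates holding compound and washed, pre-bound antibody.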

human DGKα = human DGKα (Homo sapiens, UniProt P23743); test: DGKα Biochemical Activity Assay (ADP-Glo);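 also: luminescent detection of ADP produced as DGKα phosphorylates DAG to phosphatidic acid, IC50 from four-parameter nonlinear curve fit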
[2] = recombinant DGKα 1 nM, 100 μM ATP, 18:1 DAG/POPS/octylglucoside micelles, 1 hour at 25° C., geometric mean, read-out: HTBS DGKa 1X ATP KM IC50

Sequence of human DGKα (P23743 whole entry): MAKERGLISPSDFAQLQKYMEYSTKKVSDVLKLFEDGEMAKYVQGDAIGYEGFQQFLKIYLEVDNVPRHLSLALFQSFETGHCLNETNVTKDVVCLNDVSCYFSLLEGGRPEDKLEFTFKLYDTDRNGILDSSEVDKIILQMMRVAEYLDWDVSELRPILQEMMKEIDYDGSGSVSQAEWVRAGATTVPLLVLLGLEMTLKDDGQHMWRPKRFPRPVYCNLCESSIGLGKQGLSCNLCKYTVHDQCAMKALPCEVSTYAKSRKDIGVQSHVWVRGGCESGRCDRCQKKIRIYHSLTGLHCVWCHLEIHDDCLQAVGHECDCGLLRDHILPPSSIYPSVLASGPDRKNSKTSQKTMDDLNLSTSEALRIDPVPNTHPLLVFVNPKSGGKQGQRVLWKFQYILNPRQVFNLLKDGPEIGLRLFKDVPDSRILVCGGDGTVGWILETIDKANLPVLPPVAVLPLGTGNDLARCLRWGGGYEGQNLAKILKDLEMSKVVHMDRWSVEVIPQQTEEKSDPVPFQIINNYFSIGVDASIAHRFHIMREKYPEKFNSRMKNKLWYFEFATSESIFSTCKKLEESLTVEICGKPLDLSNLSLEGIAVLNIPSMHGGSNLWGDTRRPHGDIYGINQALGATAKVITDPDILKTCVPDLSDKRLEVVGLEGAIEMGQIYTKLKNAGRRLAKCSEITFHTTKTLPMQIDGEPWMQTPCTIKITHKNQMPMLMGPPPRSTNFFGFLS

SMILES	pEC50 [1]	pIC50 (human DGKα; [2])	pIC50 (human DGKα)
Cc1nc(C#Cc2cccc3c2CCCN3c2nc3nnc(C)n3c3ccc(F)cc23)cs1 [Example 231, 4-[2-[1-(7-fluoro-1-methyl-[1,2,4]triazolo[4,3-a]quinazolin-5-yl)-3,4-dihydro-2H-quinolin-5-yl]ethynyl]-2-methyl-thiazole]	8.39	8.12	
Cc1nnc2nc(N3CCCc4c(C#Cc5cncn5C)cccc43)c3cc(F)ccc3n12 [Example 232, 7-fluoro-1-methyl-5-[5-[2-(3-methylimidazol-4-yl)ethynyl]-3,4-dihydro-2H-quinolin-1-yl]-[1,2,4]triazolo[4,3-a]quinazoline]	8.03	7.91	
Cc1nnc2nc(N3CCCc4c(C#Cc5cnn(C)c5)cccc43)c3c(F)cccc3n12 [Example 233, 6-fluoro-1-methyl-5-[5-[2-(1-methylpyrazol-4-yl)ethynyl]-3,4-dihydro-2H-quinolin-1-yl]-[1,2,4]triazolo[4,3-a]quinazoline]	8.67	8.17	
Cc1nnc2nc(N3CCCc4c(C#CC5(CO)CC5)cccc43)c3cc(F)ccc3n12 [Example 234, [1-[2-[1-(7-fluoro-1-methyl-[1,2,4]triazolo[4,3-a]quinazolin-5-yl)-3,4-dihydro-2H-quinolin-5-yl]ethynyl]cyclopropyl]methanol]	7.63	8.41	
Cc1nnc2nc(N3CCCc4c(C#CC(C)(C)CO)cccc43)c3cc(F)ccc3n12 [Example 235, 4-[1-(7-fluoro-1-methyl-[1,2,4]triazolo[4,3-a]quinazolin-5-yl)-3,4-dihydro-2H-quinolin-5-yl]-2,2-dimethyl-but-3-yn-1-ol]	8.08	8.16	
Cc1nnc2nc(N3CCCc4c(C#Cc5cnn(C)c5)cccc43)c3cc(F)ccc3n12 [Example 236, 7-fluoro-1-methyl-5-[5-[2-(1-methylpyrazol-4-yl)ethynyl]-3,4-dihydro-2H-quinolin-1-yl]-[1,2,4]triazolo[4,3-a]quinazoline]	8.60	8.44	
Cc1nnc2nc(N(CC(F)F)c3cc(F)cc(C#CC4CC(F)(F)C4)c3)c3c(F)c(F)ccc3n12 [Example 237, N-[3-[2-(3,3-difluorocyclobutyl)ethynyl]-5-fluoro-phenyl]-N-(2,2-difluoroethyl)-6,7-difluoro-1-methyl-[1,2,4]triazolo[4,3-a]quinazolin-5-amine]	8.90	8.08	
Cc1nnc2nc(N(CC(F)F)c3cc(F)cc(C#CC4(O)CCC4)c3)c3c(F)c(F)ccc3n12 [Example 238, 1-[2-[3-[2,2-difluoroethyl-(6,7-difluoro-1-methyl-[1,2,4]triazolo[4,3-a]quinazolin-5-yl)amino]-5-fluoro-phenyl]ethynyl]cyclobutanol]	7.61	8.15	
CCC(O)C#Cc1cc(F)cc(N(CC(F)F)c2nc3nnc(C)n3c3ccc(F)c(F)c23)c1 (stereo not shown) [Example 239, 1-[3-[2,2-difluoroethyl-(6,7-difluoro-1-methyl-[1,2,4]triazolo[4,3-a]quinazolin-5-yl)amino]-5-fluoro-phenyl]pent-1-yn-3-ol]	7.50	7.61	
Cc1nnc2nc(N3CCCc4c(C#CC(C)(C)C#N)cccc43)c3c(F)c(F)ccc3n12 [Example 240, 4-[1-(6,7-difluoro-1-methyl-[1,2,4]triazolo[4,3-a]quinazolin-5-yl)-3,4-dihydro-2H-quinolin-5-yl]-2,2-dimethyl-but-3-ynenitrile]	8.47	8.15	
CCC(C)(O)C#Cc1cc(F)cc(N(CC(F)F)c2nc3nnc(C)n3c3ccc(F)c(F)c23)c1 (stereo not shown) [Example 241, 1-[3-[2,2-difluoroethyl-(6,7-difluoro-1-methyl-[1,2,4]triazolo[4,3-a]quinazolin-5-yl)amino]-5-fluoro-phenyl]-3-methyl-pent-1-yn-3-ol]	7.53	7.41	
CC(C)(C#N)C#Cc1cccc2c1CCCN2c1nc2nncn2c2ccc(F)c(F)c12 [Example 242, 4-[1-(6,7-difluoro-[1,2,4]triazolo[4,3-a]quinazolin-5-yl)-3,4-dihydro-2H-quinolin-5-yl]-2,2-dimethyl-but-3-ynenitrile]	8.71	8.43	
CC(C)(C#N)C#Cc1cccc2c1CCCN2c1nc2nncn2c2cccc(F)c12 [Example 243, 4-[1-(6-fluoro-[1,2,4]triazolo[4,3-a]quinazolin-5-yl)-3,4-dihydro-2H-quinolin-5-yl]-2,2-dimethyl-but-3-ynenitrile]	8.63	8.50	
Cc1nnc2nc(N3CCCc4c(C#CC(C)(C)C#N)cccc43)c3cc(F)ccc3n12 [Example 244, 4-[1-(7-fluoro-1-methyl-[1,2,4]triazolo[4,3-a]quinazolin-5-yl)-3,4-dihydro-2H-quinolin-5-yl]-2,2-dimethyl-but-3-ynenitrile]	8.49	7.99	
Cc1nnc2nc(N(CC(F)F)c3cc(F)cc(C#CC(C)(C)C#N)c3)c3cc(F)ccc3n12 [Example 245, 4-[3-[2,2-difluoroethyl-(7-fluoro-1-methyl-[1,2,4]triazolo[4,3-a]quinazolin-5-yl)amino]-5-fluoro-phenyl]-2,2-dimethyl-but-3-ynenitrile]	8.17	7.67	
Cc1nnc2nc(N3CCCc4c(C#CC5CCC5)cccc43)c3c(F)cccc3n12 [Example 246, 5-[5-(2-cyclobutylethynyl)-3,4-dihydro-2H-quinolin-1-yl]-6-fluoro-1-methyl-[1,2,4]triazolo[4,3-a]quinazoline]	9.57	7.41	
Cc1nnc2nc(N3CCN(C)Cc4c(C#CC(C)(C)C#N)cccc43)c3c(F)cccc3n12 [compound 163]	7.55		7.77
